Reference: patent publication US20050203119A1, “Dihydropyridine compounds for treating or preventing metabolic disorders” (priority 2003, published 2005)

Experiments:
primary rat hepatocytes = assay: In vitro cytotoxicity study on primary rat hepatocytes (MTS); format: cell-based; details: Hepatocyte, 20 hours treatment with 0.4, 2, 10 and 50 μM, absorbance at 490 nm, read-out: Average EC50 (hepatocytes from at least 2 rats)
Protocol: Male SD rats having body weights of approximately 200 g were used for the study. Hepatocytes were freshly isolated and seeded with 15,000 cells/well in 96 wells coated with 100 μl collagen. The hepatocytes were cultured for 3-4 hours with HCM Bulletkit medium (Clonetics #CC-3198) then treated with 0.4 μM, 2 μM, 10 μM and 50 μM of a test compound for 20 hours. Flepatocytes were then incubated with MTS reagent (Promega #G5421) for 2-3 hours and absorbance in each well at […] was measured to determine the number of living cells in each well (the absorbance at 490 nm is directly proportional to the number of living cells in the well). The EC50 for each test compound was calculated with the Excel Xlfit wizard program based on the optical density values compared with vehicle treated cells.

Male SD rats = details: rat, in vivo
Protocol: Male SD rats weighing 350-420 g were anesthetized with 2-3% isoflurane. The femoral artery and vein were catheterized and connected to a mean arterial blood pressure (MAP) and heart rate (HR) monitor and a continuous intravenous infusion pump. Under anesthesia, MAP and HR were recorded 10-20 minutes prior to and during the continuous intravenous infusion of test compounds for 60-70 minutes. The infusion rate, 0.14-0.16 ml/kg/minute, was determined on the basis of vehicle tolerance. The infusion doses, 1.0-1.25 mg/kg/minute, were selected, depending upon the solubility of the compound and effects on MAP and HR of the positive control compounds at the lethal dose. The maximal effective dose or lethal dose of test compounds were determined accordingly.

[1] = test system: C57BLKS/J-m+/+Lepr db male animals; assay: Glucose reduction by Compound 9 in db/db mouse model (Example 112); format: in vivo; details: 3.5 hours after administration
Protocol: C57BLKS/J-m+/+Lepr db male animals (8 weeks old) were purchased from the Jackson Laboratory (Bar Harbor, Me.) in this study. All animals were acclimated for at least one week, and randomized for equivalent mean blood glucose on day 0. Animals were divided into either vehicle or treatment groups (n=8/group). Compound 9 was formulated in 0.5% methylcellulose (ps400) and administered by oral gavage at 50 mg/kg once daily for 7 consecutive days. Blood glucose was monitored using One Touch Basic glucose monitor (Abbott) 3.5 hours after administration of test compound on day 3 and 7.

C57BLKS/J-m+/+Lepr db = assay: Glucose reduction, Compound 36 in combination with rosiglitazone, db/db mice, 6 days (Example 117); format: in vivo, mouse; details: for Serum Glucose % Normalized Reduction: relative to vehicle
Protocol: C57BLKS/J-m+/+Lepr db were obtained from the Institute for Animal Reproduction (IAR, Japan), and randomized for equivalent mean blood glucose on day 0 (n=8/group). One group served as the vehicle control (0.5% methyl cellulose). […] Group 3 received 0.5 mg/kg rosiglitazone. […] All agents were administered once daily for 6 consecutive days starting on day 1. […] Post-treatment serum glucose value was expressed as percent pre-treatment from respective pre-treatment values, and percent reduction relative to vehicle control was calculated by subtracting from the percent pre-treatment of vehicle control.

male ob/ob mice = assay: Oral glucose tolerance test in glucose-loaded ob/ob mice (Example 114, FIG. 1); format: in vivo, mouse
Protocol: Blood glucose was measured at 0, 30, 120 and 240 min post-glucose loading. Metformin and rosiglitazone were used as references.

[2] = test system: NIDDM male mice (C57BLKS/J-m+/+Lepr db); assay: 7 day baseline glucose test in db/db mice (Example 119); format: in vivo, mouse; details: for Serum Glucose % Pre-Treatment Baseline: 3 hours after dose
Protocol: Non-insulin dependent diabetic mellitus (NIDDM) male mice (C57BLKS/J-m+/+Lepr db), weighing 50±5 g and 9-10-week old, were used. The animals were housed in Individually Ventilated Cages Racks (IVC Racks) throughout the experiment and all animals were allowed free access to sterilized Lab chow and sterilized distilled water. Compounds 39, 41 and 64 at 50 mg/kg as well as vehicle (0.5% Methylcellulose) were administered orally once daily for 7 consecutive days to test animals after the first blood sampling (pre-treatment). The post-treatment blood samples were withdrawn from the orbital sinus at 3 hours after administration of daily dose on day 3 and on day 7. Serum glucose levels in the pre- and post-treatment were determined by enzymatic (Mutaratase-GOD) methods. Post-treatment serum glucose values were expressed in percentage of respective pre-treatment values. Percentage reductions were expressed in percentage of pre-treatment values of test substance relative to percentage of pre-treatment values of vehicle. All percentages were calculated and unpaired; Student's t test was then applied to establish significant difference between the test compound-treated and vehicle control groups. Differences are considered significant at P<0.05.

db/db mice = assay: Combination studies of rosiglitazone or metformin with Compound 39, 7 days (Example 121); format: in vivo, mouse
Protocol: Serum glucose levels in the pre-and post-treatment were determined enzymatically (Mutaratase-GOD). Post-treatment serum glucose values were expressed in percentage of respective pre-treatment values. Percentage reductions were expressed in percentage of pre-treatment values of test substance relative to percentage of respective pre-treatment values of vehicle. All percentages were calculated and unpaired; Student's t test was then applied to establish significant difference between the test compound-treated and vehicle control groups. Differences are considered significant at P<0.05.

[3] = test system: male db/db mice (BKS.Cg-m+/+Lepr db/J); assay: Intraperitoneal glucose tolerance test (IPGTT) in db/db mice (Example 122, FIGS. 3 and 5); format: in vivo, mouse; details: Mus musculus, po, 0.75 h, read-out: Ave. % Change in Glucose Intolerance at +45 min
Protocol: Six to eight week old, male db/db mice (BKS.Cg-m+/+Lepr^db/J; stock number 000642), homozygous for a mutation in the gene encoding the leptin receptor, were purchased from The Jackson Laboratory (Bar Harbor, Me. USA). Animals were singly housed in conventional caging on a 12 hr/12 hr light/dark cycle, acclimated for at least five days prior to use and fed normal laboratory chow ad libitum between experiments. Studies were conducted with animals between seven and fourteen weeks of age. Animals were used for a maximum of five consecutive studies, with a minimum recovery period of five days between studies.
To perform an IPGTT or OGTT, db/db mice were fasted overnight beginning on day 0 at −17.5 to −18.5 hrs relative to the glucose dose on day 1 (all time points below are stated relative to the time of an intraperitoneal or oral glucose dose on day 1). At −4.5 hrs, animals were weighed, blood was collected by tail vein lancing and fasted blood glucose levels determined using a hand-held glucometer (MediSense Precision Xtra or LifeScan OneTouch Ultra). Animals were randomized into dosing groups of 6-7 animals, with each group having a similar average fasted blood glucose level. At −3 hr, animals were dosed with vehicle alone, a test compound or metformin by oral gavage at 5 ml/kg body weight. […] Blood glucose levels were determined as above at −45 min and +45 min, and also +90 min and/or +150 min (see FIG. 3 and the Table in this section). Alternatively, blood glucose levels were determined at −30 min, +30 min, +60 min and +120 min (see FIGS. 4 and 5).
Compound doses were adjusted to be the molar equivalents of 50 mg/kg of Compound 39. The percent change in blood glucose between −45 min and a time point, y, after glucose dosing (e.g., +45 min, +150 min, ect.) was calculated for each animal using formula 1: [formula]
The percent change in blood glucose between −45 min and a time point, y, after glucose dosing was calculated for each animal using formula 1.
Average percent change in glucose intolerance was calculated using Formula 2, as noted in the table below. […]

[4] = Day 3, 50 mg/kg orally once daily
[5] = Day 7, 50 mg/kg orally once daily
[6] = Day 3, metformin 150 mg/kg orally daily
[7] = Day 7, metformin 150 mg/kg orally daily
[8] = Day 3, rosiglitazone 0.5 mg/kg orally daily
[9] = Day 7, rosiglitazone 0.5 mg/kg orally daily

With CCOC(=O)C1=C(COCCN)NC2=C(C(=O)CC(C)(C)C2)[C@H]1c1cccnc1 [39 R-enantiomer, (+)-(R)-2-(2-Amino-ethoxymethyl)-7,7-dimethyl-5-oxo-4-pyridin-3-yl-1,4,5,6,7,8-hexahydro-quinoline-3-carboxylic acid ethyl ester] the EC50 (primary rat hepatocytes) was > 50 µM.
CCOC(=O)C1=C(COCCN)NC(C)=C(C(=O)OC)C1c1ccccc1Cl (stereo not shown) [Amlodipine, amlodipine, reference compound] was tested, and the “Lethal Dose” value (Male SD rats) was “˜12.7 mg/kg”.
CCOC(=O)C1=C(COCCN)NC2=C(C(=O)CC(C)(C)C2)C1c1ccccn1 (stereo not shown) [Compound 9, 2-(2-amino-ethoxymethyl)-7,7-dimethyl-5-oxo-4-pyridin-2-yl-1,4,5,6,7,8-hexahydro-quinoline-3-carboxylic acid ethyl ester] was tested, and the “percent normalized reduction in blood glucose relative to vehicle control” value ([1]; day 3, 50 mg/kg oral gavage once daily) was 13.6%, the “percent normalized reduction in blood glucose relative to vehicle control” value ([1]; day 7, 50 mg/kg oral gavage once daily) was 21.1% and the EC50 (primary rat hepatocytes) was > 50 µM.
For CCOC(=O)C1=C(COCCN)NC2=C(C(=O)CC(C)(C)C2)C1c1ccccc1F (stereo not shown) [Compound 12, 2-(2-amino-ethoxymethyl)-4-(2-fluoro-phenyl)-7,7-dimethyl-5-oxo-1,4,5,6,7,8-hexahydro-quinoline-3-carboxylic acid ethyl ester], the EC50 (primary rat hepatocytes) was > 50 µM.
With CCOC(=O)C1=C(COCCN)NC2=C(C(=O)CC(C)(C)C2)C1c1ccccc1OC (stereo not shown) [Compound 16, 2-(2-Amino-ethoxymethyl)-4-(2-methoxy-phenyl)-7,7-dimethyl-5-oxo-1,4,5,6,7,8-hexahydro-quinoline-3-carboxylic acid ethyl ester] the EC50 (primary rat hepatocytes) was > 50 µM.
In the case of CCOC(=O)C1=C(COCCN)NC2=C(C(=O)CC(C)(C)C2)[C@@H]1c1ccccc1Cl [Compound 36, S-(−)-2-(2-amino-ethoxymethyl)-4-(2-chloro-phenyl)-7,7-dimethyl-5-oxo-1,4,5,6,7,8-hexahydro-quinoline-3-carboxylic acid ethyl ester; complex with benzenesulfonic acid], the “Serum Glucose % Pre-Treatment Baseline” value (C57BLKS/J-m+/+Lepr db; Day 3, Compound 36 10 mg/kg) is reported as 103.0 ± 2.4%, the “Serum Glucose % Normalized Reduction” value (C57BLKS/J-m+/+Lepr db; Day 3, Compound 36 10 mg/kg) is reported as “(2.6) %” and the “Serum Glucose % Pre-Treatment Baseline” value (C57BLKS/J-m+/+Lepr db; Day 3, Compound 36 25 mg/kg) is reported as 100.3 ± 2.8%. The “Serum Glucose % Normalized Reduction” value (C57BLKS/J-m+/+Lepr db; Day 3, Compound 36 25 mg/kg) was “(5.3) %”, the “Serum Glucose % Pre-Treatment Baseline” value (C57BLKS/J-m+/+Lepr db; Day 6, Compound 36 10 mg/kg) was 100.7 ± 4.6% and the “Serum Glucose % Normalized Reduction” value (C57BLKS/J-m+/+Lepr db; Day 6, Compound 36 10 mg/kg) was “(7.2) %”. The “Serum Glucose % Pre-Treatment Baseline” value (C57BLKS/J-m+/+Lepr db; Day 6, Compound 36 25 mg/kg) was 99.7 ± 5.4%, the “Serum Glucose % Normalized Reduction” value (C57BLKS/J-m+/+Lepr db; Day 6, Compound 36 25 mg/kg) was “(8.2) %” and the “blood glucose after oral glucose loading” value (male ob/ob mice; 25 mg/kg orally, glucose 3 g/kg, fasted ob/ob mice) was “approximately 200 mg/dl”.
For CC1(C)CC(=O)C2=C(C1)NC(COCCN)=C(C#N)C2c1ccccc1Cl (stereo not shown) [Compound 41, 2-(2-Amino-ethoxymethyl)-4-(2-chloro-phenyl)-7,7-dimethyl-5-oxo-1,4,5,6,7,8-hexahydro-quinoline-3-carbonitrile], the “serum glucose % Reduction relative to vehicle” value [2, 4] was “(2) %”, the “Serum Glucose % Pre-Treatment Baseline” value [2, 4] was 93.3% and the “serum glucose % Reduction relative to vehicle” value [2, 5] was “(6) %”. The “Serum Glucose % Pre-Treatment Baseline” value [2, 5] was 94.1%.
In the case of CCOC(=O)C1=C(COCCN)NC2=C(C(=O)CC(C)(C)C2)C1c1ccccc1O (stereo not shown) [Compound 64, 2-(2-Amino-ethoxymethyl)-4-(2-hydroxy-phenyl)-7,7-dimethyl-5-oxo-1,4,5,6,7,8-hexahydro-quinoline-3-carboxylic acid ethyl ester], the “serum glucose % Reduction relative to vehicle” value [2, 4] is reported as “(10) %”, the “Serum Glucose % Pre-Treatment Baseline” value [2, 4] is reported as 85.9% and the “serum glucose % Reduction relative to vehicle” value [2, 5] is reported as “(12) %”. For the same compound, the “Serum Glucose % Pre-Treatment Baseline” value [2, 5] was 88.6% and the EC50 (primary rat hepatocytes) was > 50 µM.
In the case of CCOC(=O)C1=C(COCCN)N(C)C2=C(C(=O)CC(C)(C)C2)C1c1cccnc1 (stereo not shown) [Compound 66, 2-(2-Amino-ethoxymethyl)-1,7,7-trimethyl-5-oxo-4-pyridin-3-yl-1,4,5,6,7,8-hexahydro-quinoline-3-carboxylic acid ethyl ester], the EC50 (primary rat hepatocytes) is reported as > 50 µM.
CCOC(=O)C1=C(COCCN)NC2=C(C(=O)CC(C)(C)C2)C1c1ccco1 (stereo not shown) [Compound 96, 2-(2-Amino-ethoxymethyl)-4-furan-2-yl-7,7-dimethyl-5-oxo-1,4,5,6,7,8-hexahydro-quinoline-3-carboxylic acid ethyl ester] was tested, and the EC50 (primary rat hepatocytes) was > 50 µM.
In the case of CCOC(=O)C1=C(C)NC2=C(C(=O)CC(C)(C)C2)C1c1cccnc1 (stereo not shown) [Compound 202, 2,7,7-Trimethyl-4-(pyrid-3-yl)-5-oxo-1,4,5,6,7,8-hexahydro-quinoline-3-carboxylic acid ethyl ester], the EC50 (primary rat hepatocytes) is reported as > 50 µM.
With CCOC(=O)C1=C(COCCN)NC2=C(C(=O)CC(C)(C)C2)C1c1ccc(C)o1 (stereo not shown) [Compound 206, 2-(2-Amino-ethoxymethyl)-7,7-dimethyl-4-(5-methyl-furan-2-yl)-5-oxo-1,4,5,6,7,8-hexahydro-quinoline-3-carboxylic acid ethyl ester] the EC50 (primary rat hepatocytes) was > 50 µM.
For CC1=C(C#N)C(C2CC2)C2=C(CC(C)(C)CC2=O)N1 (stereo not shown) [Compound 222, 2,7,7-Trimethyl-4-cyclopropyl-5-oxo-1,4,5,6,7,8-hexahydro-quinoline-3-carbonitrile], the EC50 (primary rat hepatocytes) was > 50 µM.
With CN(C)C(=N)N=C(N)N [metformin] the “Serum Glucose % Pre-Treatment Baseline” value (db/db mice; [6]) was 68.5 ± 3.7%, the “serum glucose % Reduction relative to vehicle” value (db/db mice; [6]) was “(26.4) %” and the “Serum Glucose % Pre-Treatment Baseline” value (db/db mice; [7]) was 72.2 ± 5.7%. The “serum glucose % Reduction relative to vehicle” value (db/db mice; [7]) was “(28.7) %”, the change in vivo at 150 mg/kg [3] was -48.7% and the “blood glucose after oral glucose loading” value (male ob/ob mice; metformin 100 mg/kg (FIG. 1), glucose 3 g/kg, fasted ob/ob mice) was “approximately 200 mg/dl”.
CN(CCOc1ccc(CC2SC(=O)NC2=O)cc1)c1ccccn1 (stereo not shown) [rosiglitazone, reference compound] was tested, and the “Serum Glucose % Pre-Treatment Baseline” value (db/db mice; [8]) was 72.2 ± 6.5%, the “serum glucose % Reduction relative to vehicle” value (db/db mice; [8]) was “(22.4) %” and the “Serum Glucose % Pre-Treatment Baseline” value (db/db mice; [9]) was 61.2 ± 6.6%. The “serum glucose % Reduction relative to vehicle” value (db/db mice; [9]) was “(39.5) %”, the “Serum Glucose % Pre-Treatment Baseline” value (C57BLKS/J-m+/+Lepr db; Day 3, rosiglitazone 0.5 mg/kg) was 90.3 ± 3.1% and the “Serum Glucose % Normalized Reduction” value (C57BLKS/J-m+/+Lepr db; Day 3, rosiglitazone 0.5 mg/kg) was “(15.3) %”. The “Serum Glucose % Pre-Treatment Baseline” value (C57BLKS/J-m+/+Lepr db; Day 6, rosiglitazone 0.5 mg/kg) was 79.1 ± 1.9%, the “Serum Glucose % Normalized Reduction” value (C57BLKS/J-m+/+Lepr db; Day 6, rosiglitazone 0.5 mg/kg) was 28.8% and the “Serum Glucose % Normalized Reduction” value (C57BLKS/J-m+/+Lepr db; Day 6, rosiglitazone 0.5 mg/kg, listed as Rosiglitazone) was “(28.8) %”. For the same compound, the “blood glucose after oral glucose loading” value (male ob/ob mice; rosiglitazone 1 mg/kg (FIG. 1), 4 hours post-glucose loading) was ~300 mg/dL.
